Data from patent US11110095B2, “Pyrimidine compounds as JAK kinase inhibitors” (THERAVANCE BIOPHARMA R&D IP, LLC, priority 2016, dated 2021).
“Also recorded” adds a separate entry of the source.

How the values were obtained:
JAK3 = JAK3 (Homo sapiens (Human), UniProt P52333); test: LanthaScreen JAK biochemical assay, JAK3
Experimental: A panel of four LanthaScreen JAK biochemical assays (JAK1, 2, 3 and Tyk2) were carried in a common kinase reaction buffer (50 mM HEPES, pH 7.5, 0.01% Brij-35, 10 mM MgCl2, and 1 mM EGTA). Recombinant GST-tagged JAK enzymes and a GFP-tagged STAT1 peptide substrate were obtained from Life Technologies.
Serially diluted compounds were pre-incubated with each of the four JAK enzymes and the substrate in white 384-well microplates (Corning) at ambient temperature for 1h. ATP was subsequently added to initiate the kinase reactions in 10 μL total volume, with 1% DMSO. […] The plates were allowed to incubate at ambient temperature for 1h before being read on the EnVision reader (Perkin Elmer).
For dose-response analysis, percent inhibition data were plotted vs. compound concentrations, and IC50 values were determined from a 4-parameter robust fit model with the Prism software (GraphPad Software). Results were expressed as pIC50 (negative logarithm of IC50) and subsequently converted to pKi (negative logarithm of dissociation constant, Ki) using the Cheng-Prusoff equation.

[1] = Dynamic moisture sorption assessment; type: physicochemical; details: 5% to 90% relative humidity; for weight gain: 25° C.
Experimental: Dynamic moisture sorption (DMS) measurement was performed using a VTI atmospheric microbalance, SGA-100 system (VTI Corp., Hialeah, Fla. 33016). A weighed sample was used and the humidity was lowest possible value (close to 0% RH) at the start of the analysis. The DMS analysis consisted of an initial drying step (0% RH) for 120 minutes, followed by two cycles of sorption and desorption with a scan rate of 5% RH/step over the humidity range of 5% RH to 90% RH. The DMS run was performed isothermally at 25° C.

[2] = test system: splenic NK, B and T cells; details: mouse, in vivo; for B and T cell populations (spleen): po
Experimental: Depletion of mouse splenic cells is an experimental model of immunosuppression (Kudlacz et al., Am. J. of Transplantation, 2004, 4, 51-57). The compound of Example 2 was assessed in the mouse splenic cell model following the same treatment paradigm as that used in the oxazolone-induced colitis model (Assay 8).
The compound (1, 10 and 100 mg/kg, BID) and tofacitinib (30 and 60 mg/kg, BID) as a positive control were dosed orally for three days to naïve mice. Spleens were harvested 1 h post last dose and crushed immediately for cell subtype staining. Prior to fixation, fluorophore-labelled antibodies for CD19 (FITC; B cells), CD3e (PE; pan T cells) and DX5 (APC; NK cells) were incubated with splenocyte samples from each animal to allow for simultaneous, multiple subtype % analysis on the flow cytometer. The number of total spleen cells for each animal was measured by Scepter™ 2.0 Handheld Automated Cell Counter.
The absolute number of lymphocyte subtype population (e.g., splenic B, T and NK cells) was calculated from the percentage of each subtype times total spleen cells for each animal. A one way ANOVA, with Dunnett's post hoc test, was used to compare the splenic lymphocytes number of the vehicle and test compound groups. The a level was set at p<0.05. Data were presented as the mean±SEM for each group.

[3] = Colon pharmacokinetics in rats; type: in vivo, Sprague Dawley rats; details: rat, oral administration (summary statement)
Experimental: The test compound was formulated in 0.5% methyl-cellulose in water and dosed via oral gavage at 3.2 mg/kg and 100 mg/kg to Sprague Dawley rats. At various time points (typically 0.5, 1, 3, 6, 24 hr) post dosing, blood samples were removed via cardiac puncture and intact colons were excised from the rats. Blood samples were centrifuged at 1500×g for 15 min to collect plasma. Colons were washed with ice cold phosphate buffered saline (PBS), weighed, and homogenized at a dilution of 1:10 in PBS. Plasma and colon levels of test compound were determined by LC-MS analysis against analytical standards constructed into a standard curve in the test matrix. A colon to plasma ratio was determined as the ratio of the colon AUC to the plasma AUC in μg hr/g.

[4] = test system: TPA-induced increase in ear thickness; test: Topical TPA-induced irritant contact dermatitis model in mice; type: in vivo, Balb/c mice; details: mouse, topical 30-3000 μg per ear, 6 hours after TPA
Experimental: The objective of this assay is to assess the anti-inflammatory effect in a model of acute dermatitis of test compounds being studied for cutaneous inflammatory conditions such as atopic dermatitis (Dong et al., J Pharmacol Exp Ther, 2013, 344, 436-446).
Topical dermal application of phorbol ester 12-O-tetradecanoylphorbol-13-acetate (TPA) in mice causes an inflammatory response that is characterized by edema and neutrophil influx at the early phase (2-24 h) and by epidermal cell proliferation at the later phase (24-48 h) (Griffiths et al., Agents and Actions, 1988, 25, 344-351). Female Balb/c mice were topically administered with either vehicle (1:7 DMSO:acetone) or 20 μL of a solution of TPA (2.5 μg) in vehicle on each ear. At 30 min before and 15 min after TPA administration, either vehicle or the compound of Example 2 at doses of 30, 100, 300, 1000, and 3000 μg in vehicle was applied topically to each ear. The degree of inflammation was assessed as the change in ear thickness at 6 hours after TPA application.

[5] = test system: oxazolone-induced colitis; test: Mouse model of oxazolone-induced colitis; type: in vivo, BALB/C mice; details: mice (summary statement)
Experimental: Oxazolone-induced colitis is an experimental model that has a histological resemblance to human ulcerative colitis (Heller et al. […], 2002, 17, 629-638). Adult BALB/C mice from Harlan were used in the assay. On day 1, animals were lightly anesthetized with isoflurane and the hairs between the shoulder were carefully removed before oxazolone (4%, 150 μL, 4:1 acetone: olive oil formulation) or vehicle solution was slowly applied for skin sensitization. Seven days after skin sensitization, the mice were fasted overnight, anesthetized with isoflurane inhalation, and a 1 mL syringe equipped with a 3.5-F catheter, filled with oxazolone solution, was inserted carefully about 4 cm into the colon of the mouse. Following insertion, 50 μL of the oxazolone solution (1%, 1:1 ethanol:water formulation) was injected very slowly (over 30 sec using an injection pump) into the colon. […] Two-day post oxazolone intrarectal challenge, the Disease Activity Index (DAI) was assessed by treatment-blinded experimenters for each mouse according to the criteria score: stool consistency score (0, normal; 2, loose; 4, diarrhea), gross bleeding score (0, absence; 2, blood tinged; 4, presence), and weight loss score (0, none; 1, 1%-5%; 2, 5%-10%; 3, 10%-20%; 4, more than 20%); DAI=average of (stool consistency score+gross bleeding score+weight loss score). […]

Chain of JAK3 (P52333 whole entry): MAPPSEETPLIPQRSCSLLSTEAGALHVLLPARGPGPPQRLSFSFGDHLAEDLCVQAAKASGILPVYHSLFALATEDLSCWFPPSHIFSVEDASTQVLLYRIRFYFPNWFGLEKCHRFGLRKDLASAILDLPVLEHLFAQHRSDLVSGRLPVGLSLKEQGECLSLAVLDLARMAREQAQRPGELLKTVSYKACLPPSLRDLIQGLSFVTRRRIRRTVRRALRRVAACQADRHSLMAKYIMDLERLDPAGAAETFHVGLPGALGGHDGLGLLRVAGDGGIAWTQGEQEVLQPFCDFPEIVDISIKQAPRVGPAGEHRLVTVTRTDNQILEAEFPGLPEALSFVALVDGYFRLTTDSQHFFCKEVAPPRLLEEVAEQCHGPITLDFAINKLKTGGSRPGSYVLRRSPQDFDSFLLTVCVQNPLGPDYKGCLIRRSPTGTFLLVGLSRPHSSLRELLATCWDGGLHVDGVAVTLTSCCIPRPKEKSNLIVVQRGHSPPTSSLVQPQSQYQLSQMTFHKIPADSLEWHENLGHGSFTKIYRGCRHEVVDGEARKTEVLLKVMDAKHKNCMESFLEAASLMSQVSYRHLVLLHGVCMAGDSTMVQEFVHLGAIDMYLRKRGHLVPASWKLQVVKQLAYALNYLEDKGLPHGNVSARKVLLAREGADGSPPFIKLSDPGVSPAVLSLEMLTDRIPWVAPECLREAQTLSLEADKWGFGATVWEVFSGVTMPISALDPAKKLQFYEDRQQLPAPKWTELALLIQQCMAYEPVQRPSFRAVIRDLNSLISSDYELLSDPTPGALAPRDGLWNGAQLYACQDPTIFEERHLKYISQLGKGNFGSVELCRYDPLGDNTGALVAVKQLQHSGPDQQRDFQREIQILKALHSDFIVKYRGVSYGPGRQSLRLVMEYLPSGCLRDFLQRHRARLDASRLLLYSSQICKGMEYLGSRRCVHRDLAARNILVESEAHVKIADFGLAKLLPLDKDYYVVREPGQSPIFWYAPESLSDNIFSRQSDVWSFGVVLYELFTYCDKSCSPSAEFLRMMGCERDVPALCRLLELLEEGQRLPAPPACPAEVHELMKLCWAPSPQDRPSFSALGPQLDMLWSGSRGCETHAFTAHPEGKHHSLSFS

SMILES: COc1cc(Nc2cc(CO)[nH]n2)nc(N(C)[C@@H]2C[C@H]3CCC[C@@H](C2)N3C(=O)C(F)F)n1 [Example 9, 2,2-difluoro-1-((1R,3s,5S)-3-((4-((5-(hydroxymethyl)-1H-pyrazol-3-yl)amino)-6-methoxypyrimidin-2-yl)(methyl)amino)-9-azabicyclo[3.3.1]nonan-9-yl)ethan-1-one]
- JAK 3 (pKi) (JAK3): D (D represents a pKi value between 7.5 and 8 (Ki between 31.6 nM and 10 nM))

SMILES: COc1cc(Nc2cc(CO)[nH]n2)nc(N(C)[C@@H]2C[C@H]3CCC[C@@H](C2)N3S(=O)(=O)N2CC(C#N)C2)n1 [Form II, 1-(((1R,3s,5S)-3-((4-((5-(hydroxymethyl)-1H-pyrazol-3-yl)amino)-6-methoxypyrimidin-2-yl)(methyl)amino)-9-azabicyclo[3.3.1]nonan-9-yl)sulfonyl)azetidine-3-carbonitrile]
- weight gain [1]: about 1.2%

SMILES: COc1cc(Nc2cc(CO)[nH]n2)nc(N(C)[C@@H]2C[C@H]3CCC[C@@H](C2)N3S(=O)(=O)N2CC(C#N)C2)n1 [Example 2, 1-(((1R,3s,5S)-3-((4-((5-(Hydroxymethyl)-1H-pyrazol-3-yl)amino)-6-methoxypyrimidin-2-yl)(methyl)amino)-9-azabicyclo[3.3.1]nonan-9-yl)sulfonyl)azetidine-3-carbonitrile]
- effect of immunosuppression [2]: minimal effect of immunosuppression
- B and T cell populations (spleen) [2]: No treatment effect
- ratio of exposure in the colon to exposure in plasma [3]: greater than 250
- inhibition of TPA-induced increase in ear thickness [4]: dose- and concentration-dependent effect; also recorded: dose- and concentration-dependent inhibition
- activity in the oxazolone-induced colitis model [5]: demonstrated activity

SMILES: COc1cc(Nc2cc(CO)[nH]n2)nc(N(C)[C@@H]2C[C@H]3CCC[C@@H](C2)N3S(=O)(=O)N2CC(C#N)C2)n1 [Form I, 1-(((1R,3s,5S)-3-((4-((5-(hydroxymethyl)-1H-pyrazol-3-yl)amino)-6-methoxypyrimidin-2-yl)(methyl)amino)-9-azabicyclo[3.3.1]nonan-9-yl)sulfonyl)azetidine-3-carbonitrile]
- hygroscopicity [1]: non-hygroscopic
- weight gain [1]: less than 0.4%
- weight gain ([1]; listed as Crystalline 1-((1R,3s,5S)-3-((4-((5-(hydroxymethyl)-1H-pyrazol-3-yl)amino)-6-me)))): less than 0.4%

SMILES: C[C@@H]1CCN(C(=O)CC#N)C[C@@H]1N(C)c1ncnc2[nH]ccc12 [tofacitinib, reference compound]
- B and T cell populations (spleen) [2]: No treatment effect
